Measurements: ChEMBL document CHEMBL1201862, “PubChem BioAssay data set” (2004)
Active and inactive are the calls of the source.

Columns and labels:
[1] = Luminescence Cell-Based/Microorganism Confirmation at Dose of Inhibitors of Trypanosoma cruzi Infection. [Related pubchem assays: 1885, 1968 ]; format: functional
[2] = Luminescence Cell-Based Secondary HTS screen to identify cytotoxic compounds of NIH3T3 cells. [Related pubchem assays: 1885, 1968 ]; format: functional
[3] = T. cruzi infection blockers in NIH3T3 cells – beta-gal luminescence, NIH3T3 host cells, confirmation (AID 2630); format: functional, cell-based; settings: Mus musculus
cells = format: functional, cell-based; settings: HEK-CNG
[4] = HEK-293T viability loss, compound-treated – cell-based, uHTS hits, cytotoxicity control for B/T-cell NF-kB inhibitor project, dose response (AID 489019); format: functional;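 also: IC50 reflects cytotoxicity as loss of cell viability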
Galanin receptor type 3 = Galanin receptor type 3 (Homo sapiens, UniProt O60755); assay: Fluorescence-based cell-based primary high throughput dose response assay to identify antagonists of the Galanin Receptor 3 (GalR3).; format: functional
Chain of Galanin receptor type 3 (O60755 whole entry): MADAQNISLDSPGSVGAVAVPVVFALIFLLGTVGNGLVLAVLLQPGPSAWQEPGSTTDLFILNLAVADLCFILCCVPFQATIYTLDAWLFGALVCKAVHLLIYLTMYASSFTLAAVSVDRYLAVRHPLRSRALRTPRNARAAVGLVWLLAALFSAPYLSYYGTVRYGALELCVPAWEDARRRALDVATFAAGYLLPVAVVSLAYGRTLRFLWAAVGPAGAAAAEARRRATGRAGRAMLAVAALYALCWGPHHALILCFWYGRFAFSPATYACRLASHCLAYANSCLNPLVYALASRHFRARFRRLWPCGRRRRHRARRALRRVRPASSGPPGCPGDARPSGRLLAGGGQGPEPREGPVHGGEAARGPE

Jurkat = assay: blockers of NF-kB activation in T cells – Jurkat, luciferase reporter, luminescence, B- and T-cell, dose response (AID 489004); format: functional, cell-based; settings: Homo sapiens;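 also: NF-kB luciferase reporter Jurkat cells stimulated with PMA plus ionomycin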
[5] = biological target: T1, COUP transcription factor 2 (Homo sapiens, UniProt P24468); assay: Luminescence-based cell-based high throughput dose response assay to identify inhibitors of COUP-TFII (NR2F2).; format: functional;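 also: HEK293 cells transiently cotransfected with COUP-TFII expression vector and reporter; luciferase reporter luminescence driven by COUP-TFII from the pX2-168 reporter plasmid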
T1 sequence (P24468 whole entry): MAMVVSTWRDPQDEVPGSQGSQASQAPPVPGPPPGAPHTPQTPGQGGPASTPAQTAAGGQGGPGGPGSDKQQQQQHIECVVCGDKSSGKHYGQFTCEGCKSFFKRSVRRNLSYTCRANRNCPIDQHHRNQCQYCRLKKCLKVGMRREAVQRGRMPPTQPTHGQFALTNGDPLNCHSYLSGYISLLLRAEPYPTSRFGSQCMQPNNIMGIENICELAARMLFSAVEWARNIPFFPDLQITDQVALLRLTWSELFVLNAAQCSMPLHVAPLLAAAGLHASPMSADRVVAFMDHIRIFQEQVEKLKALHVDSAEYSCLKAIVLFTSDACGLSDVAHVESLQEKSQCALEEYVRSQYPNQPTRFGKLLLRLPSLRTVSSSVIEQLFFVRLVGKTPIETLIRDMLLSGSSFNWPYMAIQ

Galanin receptor type 2 = Galanin receptor type 2 (Homo sapiens, UniProt O43603); assay: Dose Response cell-based high-throughput screening assay to identify antagonists of galanin receptor 2 (GALR2). [Related pubchem assays: 828, 866 ]; format: functional
Chain of Galanin receptor type 2 (O43603 whole entry): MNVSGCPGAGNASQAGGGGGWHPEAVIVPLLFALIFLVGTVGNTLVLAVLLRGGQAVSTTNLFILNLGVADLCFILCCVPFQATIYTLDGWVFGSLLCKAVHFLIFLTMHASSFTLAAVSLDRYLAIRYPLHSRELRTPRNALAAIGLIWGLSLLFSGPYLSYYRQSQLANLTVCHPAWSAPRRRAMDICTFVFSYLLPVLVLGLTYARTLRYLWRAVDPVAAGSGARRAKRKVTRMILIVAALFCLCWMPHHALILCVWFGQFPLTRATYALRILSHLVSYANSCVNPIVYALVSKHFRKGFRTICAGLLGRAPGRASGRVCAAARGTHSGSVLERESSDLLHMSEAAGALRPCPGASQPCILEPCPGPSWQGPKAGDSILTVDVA

Beta-arrestin-1 = Beta-arrestin-1 (Homo sapiens, UniProt P49407); assay: beta-arrestin/AP2 interaction blockers, potency – biochemical, cherry pick 1, beta2-adaptin appendage, flow cytometry, dose response (AID 588783); format: functional
Chain of Beta-arrestin-1 (P49407 whole entry): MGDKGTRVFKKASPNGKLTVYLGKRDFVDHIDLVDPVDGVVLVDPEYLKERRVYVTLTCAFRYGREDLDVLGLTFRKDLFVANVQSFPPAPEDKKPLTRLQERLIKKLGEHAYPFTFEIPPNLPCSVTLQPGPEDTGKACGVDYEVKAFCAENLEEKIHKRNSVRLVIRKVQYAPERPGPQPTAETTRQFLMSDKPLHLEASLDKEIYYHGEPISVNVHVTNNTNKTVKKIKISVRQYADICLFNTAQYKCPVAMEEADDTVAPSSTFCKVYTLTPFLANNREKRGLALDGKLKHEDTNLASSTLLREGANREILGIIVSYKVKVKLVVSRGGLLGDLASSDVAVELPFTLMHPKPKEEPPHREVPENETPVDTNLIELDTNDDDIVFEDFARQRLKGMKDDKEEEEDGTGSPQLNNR

[6] = biological target: T2, Type-1 angiotensin II receptor (Homo sapiens, UniProt P30556); assay: antagonism of angiotensin II type 1 receptor – cell-based, uHTS hits, selectivity assay for APJ receptor antagonist project, dose response (AID 463214); format: functional;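 also: antagonist potency against angiotensin II stimulated AT1 response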
T2 sequence (P30556 whole entry): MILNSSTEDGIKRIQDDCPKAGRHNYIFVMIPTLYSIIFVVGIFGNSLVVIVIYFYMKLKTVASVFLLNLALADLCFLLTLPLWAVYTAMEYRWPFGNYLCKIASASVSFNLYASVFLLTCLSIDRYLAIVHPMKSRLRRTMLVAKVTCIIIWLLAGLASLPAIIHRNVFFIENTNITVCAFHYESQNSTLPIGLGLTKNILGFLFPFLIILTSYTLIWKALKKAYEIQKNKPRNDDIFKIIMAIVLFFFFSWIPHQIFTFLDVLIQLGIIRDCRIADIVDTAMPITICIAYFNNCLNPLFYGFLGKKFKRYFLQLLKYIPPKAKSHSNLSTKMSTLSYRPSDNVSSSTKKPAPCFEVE

[7] = Fluorescence-based cell-based high throughput dose response assay for inhibitors of the interaction of nucleotide-binding oligomerization domain containing 2 (NOD2) and the receptor-interacting serine-threonine kinase 2 (RIPK2).; format: functional; settings: Homo sapiens
[8] = loss of viability in HepG2 cells – cell-based, CellTiter-Glo, cherry-picked, cytotoxicity control for Shn3 inhibitor project, dose response (AID 624134); format: functional
[9] = reduction of Shn3 3'UTR-driven luciferase in osteoblasts – cell-based, Clone20 osteoblasts, firefly luciferase, cherry-picked, dose response (AID 624132); format: functional;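 also: firefly luciferase luminescence from reporter carrying the Shn3 3'UTR in osteoblasts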
HEK293 [10] = assay: cells; settings: Homo sapiens
HEK293 [11] = assay: cells; settings: Homo sapiens; remark: listed apart in the source
Beta-galactosidase = Beta-galactosidase (Escherichia coli, UniProt Q8VNN2); assay: PubChem AID 485352; format: functional
Chain of Beta-galactosidase (Q8VNN2 whole entry): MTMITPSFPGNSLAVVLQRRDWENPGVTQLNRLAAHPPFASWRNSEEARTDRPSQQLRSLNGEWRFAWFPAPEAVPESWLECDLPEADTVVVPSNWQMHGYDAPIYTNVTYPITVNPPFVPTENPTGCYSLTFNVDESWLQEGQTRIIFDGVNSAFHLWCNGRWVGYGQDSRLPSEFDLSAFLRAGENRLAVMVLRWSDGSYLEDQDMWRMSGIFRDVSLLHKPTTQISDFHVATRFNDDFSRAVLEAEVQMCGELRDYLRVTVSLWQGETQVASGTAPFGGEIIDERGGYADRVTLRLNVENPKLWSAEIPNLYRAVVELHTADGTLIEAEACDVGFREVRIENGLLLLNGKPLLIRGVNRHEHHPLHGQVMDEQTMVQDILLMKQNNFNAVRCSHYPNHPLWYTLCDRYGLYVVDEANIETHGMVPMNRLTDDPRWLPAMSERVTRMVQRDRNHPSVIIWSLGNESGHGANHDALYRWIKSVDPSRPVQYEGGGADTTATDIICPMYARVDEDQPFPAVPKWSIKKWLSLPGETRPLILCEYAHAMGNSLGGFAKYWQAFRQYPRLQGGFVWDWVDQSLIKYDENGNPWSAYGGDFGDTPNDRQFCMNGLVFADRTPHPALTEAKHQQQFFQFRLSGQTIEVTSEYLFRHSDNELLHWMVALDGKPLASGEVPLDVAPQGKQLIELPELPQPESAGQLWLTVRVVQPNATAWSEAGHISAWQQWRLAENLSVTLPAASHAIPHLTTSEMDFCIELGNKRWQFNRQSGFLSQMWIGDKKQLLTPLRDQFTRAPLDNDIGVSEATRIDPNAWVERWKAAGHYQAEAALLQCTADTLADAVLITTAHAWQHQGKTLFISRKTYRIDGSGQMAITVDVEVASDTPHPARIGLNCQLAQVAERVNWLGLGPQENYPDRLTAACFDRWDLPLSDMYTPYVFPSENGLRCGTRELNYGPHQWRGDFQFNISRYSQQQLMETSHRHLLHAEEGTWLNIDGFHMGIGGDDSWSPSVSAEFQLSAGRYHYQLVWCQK

[12] = biological target: Delta-type opioid receptor (Homo sapiens, UniProt P41143); assay: Counterscreen for agonists of heterodimerization of the mu 1 (OPRM1) and delta 1 (OPRD1) opioid receptors: Luminescence-based cell-based high throughput dose response assay to identify agonists of OPRD1 homodimerization. [Related pubchem assays (depositor defined):AID504326, AID504355, AID504692, AID504904, AID504905]; format: functional
Chain of Delta-type opioid receptor (P41143 whole entry): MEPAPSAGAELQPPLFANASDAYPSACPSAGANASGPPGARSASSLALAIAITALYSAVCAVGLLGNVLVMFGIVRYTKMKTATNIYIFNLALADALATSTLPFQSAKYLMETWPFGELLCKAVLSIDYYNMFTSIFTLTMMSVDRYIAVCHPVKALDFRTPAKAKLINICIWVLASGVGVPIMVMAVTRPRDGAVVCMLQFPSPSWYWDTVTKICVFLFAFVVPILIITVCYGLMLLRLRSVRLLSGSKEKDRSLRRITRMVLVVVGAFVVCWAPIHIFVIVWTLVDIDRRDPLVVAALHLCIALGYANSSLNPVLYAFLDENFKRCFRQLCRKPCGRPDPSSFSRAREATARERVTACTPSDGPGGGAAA

[13] = biological target: T3, Short transient receptor potential channel 4 (Mus musculus, UniProt Q9QUQ5); assay: calcium entry via TRPC4 opening agents – cell-based, HEK293 TRPC4/mu-opioid, Fluo-4 calcium, dose response (AID 434937); format: functional
T3 sequence (Q9QUQ5 whole entry): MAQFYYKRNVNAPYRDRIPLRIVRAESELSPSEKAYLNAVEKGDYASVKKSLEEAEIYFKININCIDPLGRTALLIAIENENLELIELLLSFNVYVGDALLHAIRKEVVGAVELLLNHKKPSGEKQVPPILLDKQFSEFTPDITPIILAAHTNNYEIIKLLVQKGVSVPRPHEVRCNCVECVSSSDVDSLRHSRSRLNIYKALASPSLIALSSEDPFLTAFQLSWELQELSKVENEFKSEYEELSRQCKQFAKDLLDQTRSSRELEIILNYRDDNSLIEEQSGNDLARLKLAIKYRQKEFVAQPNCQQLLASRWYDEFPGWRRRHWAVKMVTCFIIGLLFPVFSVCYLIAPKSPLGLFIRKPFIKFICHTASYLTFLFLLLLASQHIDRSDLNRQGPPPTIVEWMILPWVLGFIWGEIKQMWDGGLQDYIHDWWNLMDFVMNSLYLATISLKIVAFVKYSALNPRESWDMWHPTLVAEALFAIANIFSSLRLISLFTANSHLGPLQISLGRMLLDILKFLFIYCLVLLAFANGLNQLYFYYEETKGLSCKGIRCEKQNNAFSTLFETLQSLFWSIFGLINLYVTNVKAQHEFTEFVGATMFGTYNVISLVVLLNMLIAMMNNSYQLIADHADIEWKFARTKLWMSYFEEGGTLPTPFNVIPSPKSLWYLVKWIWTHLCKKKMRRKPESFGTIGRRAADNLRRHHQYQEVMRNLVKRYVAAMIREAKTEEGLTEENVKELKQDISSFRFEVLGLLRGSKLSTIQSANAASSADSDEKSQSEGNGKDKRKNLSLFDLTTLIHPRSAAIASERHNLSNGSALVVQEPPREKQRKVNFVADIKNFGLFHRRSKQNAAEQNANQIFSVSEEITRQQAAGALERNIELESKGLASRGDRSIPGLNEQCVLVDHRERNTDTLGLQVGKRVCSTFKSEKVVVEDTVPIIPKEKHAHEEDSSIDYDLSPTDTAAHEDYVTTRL

[14] = biological target: 5-hydroxytryptamine receptor 5A (Homo sapiens, UniProt P47898); assay: Counterscreen for agonists of OPRM1-OPRD1 heterodimerization: luminescence-based cell-based high throughput dose response assay to identify agonists of 5-hydroxytryptamine (serotonin) 5A receptor (HTR5A). [Related pubchem assays (depositor defined):AID504326, AID504355, AID504692, AID504904, AID504905]; format: functional
Chain of 5-hydroxytryptamine receptor 5A (P47898 whole entry): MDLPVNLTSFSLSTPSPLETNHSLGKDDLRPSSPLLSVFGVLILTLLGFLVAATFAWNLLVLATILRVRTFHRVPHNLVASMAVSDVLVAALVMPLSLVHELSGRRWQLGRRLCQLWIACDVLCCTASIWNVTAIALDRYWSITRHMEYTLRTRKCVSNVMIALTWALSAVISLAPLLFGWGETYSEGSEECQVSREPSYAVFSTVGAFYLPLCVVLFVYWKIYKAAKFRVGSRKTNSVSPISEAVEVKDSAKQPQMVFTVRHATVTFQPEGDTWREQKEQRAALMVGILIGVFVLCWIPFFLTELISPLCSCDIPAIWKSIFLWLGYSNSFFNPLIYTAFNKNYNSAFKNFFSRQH

Mu-type opioid receptor = Mu-type opioid receptor (Homo sapiens, UniProt P35372); assay: Counterscreen for agonists of heterodimerization of the mu 1 (OPRM1) and delta 1 (OPRD1) opioid receptors: Luminescence-based cell-based high throughput dose response assay to identify agonists of OPRM1 homodimerization.; format: functional;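 also: U2OS cells expressing OPRM1 and beta-arrestin as split beta-galactosidase partners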
Chain of Mu-type opioid receptor (P35372 whole entry): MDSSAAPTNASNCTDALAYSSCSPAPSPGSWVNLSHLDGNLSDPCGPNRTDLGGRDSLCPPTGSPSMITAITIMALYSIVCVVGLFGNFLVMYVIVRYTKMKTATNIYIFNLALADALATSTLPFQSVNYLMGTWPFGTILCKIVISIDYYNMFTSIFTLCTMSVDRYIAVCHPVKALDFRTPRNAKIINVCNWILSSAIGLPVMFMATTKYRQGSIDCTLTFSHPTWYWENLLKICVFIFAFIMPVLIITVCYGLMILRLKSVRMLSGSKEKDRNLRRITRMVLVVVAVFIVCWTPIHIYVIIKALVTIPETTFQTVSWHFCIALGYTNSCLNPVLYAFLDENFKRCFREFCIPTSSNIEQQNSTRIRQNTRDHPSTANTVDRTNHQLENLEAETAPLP

CCc1ccc2nc(N(CCN(C)C)C(=O)c3ccc4ncsc4c3)sc2c1
EC50 [1]: 0.176 µM (active) | EC50 [2]: > 195 µM (inconclusive) | EC50 [3]: 0.176 µM (active)

O=C(CSc1nnnn1C1CC2CCC1C2)Nc1ccnc2ccccc12 (stereo unspecified)
EC50 (cells): > 29.9 µM (inactive) | IC50 [4]: 45.1 µM (inactive) | IC50 (Galanin receptor type 3): 0.0869 µM (active) | IC50 (Jurkat): 61.4 µM (inactive) | IC50 [5]: 0.568 µM (active) | IC50 (Galanin receptor type 2): > 42 µM (not active)

CCN1/C(=C/c2ccc3cc(C)ccc3[n+]2C)Sc2ccc3sccc3c21
IC50 (Beta-arrestin-1): 3.12 µM (active)

Cc1cccc(C(=O)Nc2ccc(C(=O)/C=C/c3ccncc3)cc2)c1
IC50 [6]: 9.71 µM (active) | IC50 [7]: 3.51 µM (active) | AC50 [8]: 36.4 µM (active) | AC50 [9]: 3.41 µM (active) | EC50 (HEK293 [10]): > 59.6 µM (inactive) | EC50 (HEK293 [11]): > 59.6 µM (inactive) | EC50 (Beta-galactosidase): > 40 µM (inactive)

CN(C)C(CNC(=O)Cc1ccc([N+](=O)[O-])cc1)c1ccccc1 (stereo unspecified)
EC50 [12]: > 92.5 µM (inactive) | EC50 [13]: 0.531 µM (active) | EC50 [14]: > 92.5 µM (inactive) | EC50 (Mu-type opioid receptor): > 92.5 µM (inactive)
